{"source": "patent US12016905B2", "about": "“Pharmaceutical composition for prevention or treatment of preterm birth” (KOREA UNIVERSITY RESEARCH AND BUSINESS FOUNDATION, priority 2019, dated 2024)", "key": {"[1]": {"tested_on": "fibroblasts isolated from cervical cells of a mouse", "test": "Western blot of α-SMA and type I collagen in cervical fibroblasts treated with TGF-β1", "type": "cell-based", "protocol": "(§1) The experiment process will be described with reference to FIG. 5. Cells were isolated from the cervixes of 4- to 6-week old C57BL/6 mice and subjected to primary cell culture in 60 mm dishes (step p0). After step […] is performed by culturing for 12 to 15 days, the number of fibroblasts was measured, and fibroblasts were seeded in a 6 well dish at a density of about 0.3×10^6 cells/dish, followed by secondary culture (step p2). After 1 day from the secondary culture, it was treated for 2 hours in a serum-free medium, and then treated with 10 ng/ml of TGF-β1 per dish to induce differentiation into myofibroblasts, and experimental group was treated with SB-431542, which is a TGF-1 inhibitor, at each concentration of 0, 2, 8 and 16\nUM. Two days after drug treatment, cells were washed with 10× phosphate buffered saline (PBS; Affymetrix), and proteins were extracted with RIPA buffer. Western blot was performed to investigate the expression levels of α-SMA, a marker of myofibroblasts, and COLI, a marker of collagen.\nAs the primary antibodies, α-smooth muscle actin (1:1000) and type I collagen (1:500) antibody were reacted at 4° C. overnight, and as the secondary antibody, anti-mouse IgG (CellNest, USA) was added thereto and was detected after the reaction for 1 hour at room temperature."}, "cervix of C57BL/6 mice": {"tested_on": "cervix of C57BL/6 mice", "test": "M/C ratio (α-SMA/type I collagen, Western blot) in cervical tissue after cervical excision and 3 weeks of drug administration", "type": "in vivo, mouse", "protocol": "Sexually mature female C57BL/6 mice were used for experiments in vivo. The laboratory was maintained at a constant temperature (22 to 24° C.) with a 12-hour day/night cycle. Partial cervical tissue excision was performed at each 5-week old. Specifically, each mouse was anesthetized by inhalation of 2 to 4% isoflurane, and then the cervix thereof was grasped by using forceps, and an excision was made to a depth of 1 mm using a scalpel. In order to minimize bleeding after excision, each mouse was compressed to stop bleeding. The length of the cervix was 2.5 mm, about 40% of the cervix was excised, and the average weight of the excised tissues was 7 mg.\nAt the same time as the cervical tissue excision, liquid fibronectin, and SB-431542 dissolved in DMSO were injected into the cervix through the vagina using a feeding needle.\nLiquid into the fibronectin (plasma) was infused cervix through the vagina daily for 3 weeks at each dose of 20 mg and 0.2 mg (20 mg, diluted 10 times, expressed as FN (X10)). SB-431542 was dissolved in 5% DMSO, and infused into the cervix through the vagina daily for 3 weeks at each dosage of 20 mg and 0.2 mg (20 mg, diluted 10 times, indicated as SB-431542 (X10). After the drug treatment for 3 weeks, samples were obtained from the proximal cervix and distal cervix regions divided in the cervical tissue (see FIG. 13).\nThe protein extraction method for confirming the expression of α-SMA and type I collagen (Collagen I) was as follows. After an RIPA buffer (RIPA lysis buffer, 150 mM NaCl, 1% Triton X-100, 1% SD, 0.1% SDS, 50 mM Tris-13 HCl, 2 mM EDTA) and protease inhibitor cocktail (GenDEPOT, P3100-005) were mixed, 100 ul of the mixture was added to separate cervical tissue in each region and pulverized using a homogenizer. After the pulverized product was left on ice for 40 minutes, centrifugation was performed for 15 minutes using a centrifuge (13,000 rpm, 4 degrees). Only the supernatant was used after storage in a new tube. Protein quantification was carried out by a Bradford method (Protein assay dye reagent concentrate buffer, BioRad).\nWestern blot method for confirming the expression of α-SMA and type I collagen was as follows. The extracted protein was loaded on a 10% SDS PAGE gel at 5 μg each and transferred to a nitrocellulose membrane. After blocking with 5% skim milk, α-smooth muscle actin antibody (1:1000, NSJ Bioreagents, V2001) as the primary antibodies, and type I collagen antibody (1:500, Abcam, ab88147), GAPDH (1:1000, Santa Cruz, sc376559) were reacted at 4° ° C.overnight, and anti-mouse IgG (CellNest, USA) as a secondary antibody was added thereto and reacted for 1 hour at room temperature, and then was developed and detected by using an ECL kit (SuperSignal West Pico PLUS Chemiluminescent Substrate, Thermo Scientific).\nFor oral administration (PO), the drug was administered to the esophagus through the mouth using a feeding needle at the same time as the cervical tissue excision. SB-431542 was dissolved in 5% DMSO and injected in an amount of 10 mg/kg with each 100 ul for 3 weeks.\nFor intraperitoneal infusion (IP), the drug was administered intraperitoneally using an insulin syringe at the same time as the cervical tissue excision. SB-431542 was dissolved in 5% DMSO and infused in an amount of 10 mg/kg with each 100 ul for 3 weeks."}, "[2]": {"tested_on": "fibroblasts isolated from cervical cells of a mouse", "test": "Immunofluorescence staining for α-SMA protein in cervical fibroblasts treated with TGF-β1", "type": "cell-based", "conditions": "treated simultaneously with TGF-β1 and SB-431542", "protocol": "as §1"}, "[3]": {"tested_on": "fibroblasts isolated from cervical cells of a mouse", "test": "mRNA expression level of α-SMA in cervical fibroblasts treated with TGF-β1", "type": "cell-based", "conditions": "8 μM SB-431542 with TGF-β1", "protocol": "as §1"}, "[4]": {"tested_on": "fibroblasts isolated from cervical cells of a mouse", "test": "Western blot of α-SMA and type I collagen in cervical fibroblasts treated with TGF-β1", "type": "cell-based", "remark": "listed apart in the source"}, "[5]": {"conditions": "intravaginal, 0.2 mg (X10) daily for 3 weeks, versus cervical excision group"}, "[6]": {"conditions": "intravaginal, 20 mg daily for 3 weeks, versus cervical excision group"}, "[7]": {"conditions": "plasma fibronectin 2 μg/cm2 per well together with TGF-β1"}}, "note": "“Also recorded” adds a separate entry of the source.", "data": [{"molecule": "TGF-β1: transforming growth factor beta1, used to induce differentiation of fibroblasts into myofibroblasts", "values": [{"measurement": "collagen 1 expression", "setting": "[1]; TGF-β1 10 ng/ml", "value": "no effect"}, {"measurement": "expression level of α-SMA", "setting": "[1]; TGF-β1 alone, 10 ng/ml", "value": "increased"}]}, {"molecule": "NC(=O)c1ccc(-c2nc(-c3ccc4c(c3)OCO4)c(-c3ccccn3)[nH]2)cc1", "note": "[SB-431542, 4-(5-benzol [1,3]dioxol-5-yl-4-pyrldin-2-yl-1H-imidazol-2-yl)-benzamide]", "values": [{"measurement": "M/C ratio", "setting": "cervix of C57BL/6 mice; intraperitoneal, 10 mg/kg daily for 3 weeks", "value": "lower than that of the cervical excision group"}, {"measurement": "M/C ratio", "setting": "cervix of C57BL/6 mice; [5]", "value": "no significant change"}, {"measurement": "M/C ratio", "setting": "cervix of C57BL/6 mice; [6]", "value": "no significant change"}, {"measurement": "M/C ratio", "setting": "cervix of C57BL/6 mice; oral administration, 10 mg/kg daily for 3 weeks", "value": "lower than that of the cervical excision group"}, {"measurement": "fluorescence detection of α-SMA", "setting": "[2]", "value": "reduced"}, {"measurement": "expression of α-SMA protein", "setting": "[1]; 8 μM SB-431542 with 10 ng/ml TGF-β1, two days after treatment", "value": "decreased; also recorded: significantly reduced"}, {"measurement": "collagen 1 expression", "setting": "[1]; SB-431542 with TGF-β1", "value": "no effect"}, {"measurement": "mRNA expression level of α-SMA", "setting": "[3]", "value": "no significant change"}]}, {"molecule": "chondroitin sulfate", "values": [{"measurement": "increase in α-SMA expression by TGF-β1", "setting": "[4]; 50 μg/ml chondroitin sulfate with TGF-β1", "value": "slightly inhibited"}]}, {"molecule": "plasma fibronectin: fibronectin bovine plasma product purchased from Sigma-Aldrich; polypeptide of SEQ ID NO: 1", "values": [{"measurement": "M/C ratio", "setting": "cervix of C57BL/6 mice; [5]", "value": "decreased"}, {"measurement": "M/C ratio", "setting": "cervix of C57BL/6 mice; [6]", "value": "decreased"}, {"measurement": "collagen expression", "setting": "[4]; [7]", "value": "slightly decreased"}, {"measurement": "expression level of α-SMA", "setting": "[4]; [7]", "value": "decreased as much as in the control group"}, {"measurement": "ratio of α-SMA/collagen 1", "setting": "[4]; [7]", "value": "reduced"}]}, {"molecule": "tenascin-C: drug used for wound treatment, purchased from EMD-Millipore", "values": [{"measurement": "increase in α-SMA expression by TGF-β1", "setting": "[4]; 2 μg/ml tenascin-C with TGF-β1", "value": "slightly inhibited"}]}, {"molecule": "TGF-β3: drug used for wound treatment, purchased from Sigma-Aldrich (protein, UniProt P10600 301-412, looked up, Transforming growth factor beta-3, drug used for wound treatment, purchased from Sigma-Aldrich) Transforming growth factor …: ALDTNYCFRNLEENCCVRPLYIDFRQDLGWKWVHEPKGYYANFCSGPCPYLRSADTTHSTVLGLYNTLNPEASASPCCVPQDLEPLTILYYVGRTPKVEQLSNMVVKSCKCS", "values": [{"measurement": "increase in α-SMA expression by TGF-β1", "setting": "[4]; 10 μg/ml TGF-β3 with TGF-β1", "value": "slightly inhibited"}]}]}
